We go through six compounds from article PMC7821381, “Multi-Targeted Anticancer Activity of Imidazolate Phosphane Gold(I) Compounds by Inhibition of DHFR and TrxR in Breast Cancer Cells” (Frontiers in Chemistry, 2021).

Data set [1] relates to MDA-MB231 cells. Set-up: method as in Gambini et al., 2018. The settings on record: MDA-MB231, 48 h; ref Gambini et al., 2018; cited from earlier work.
The test system of data set [2] is SKBR3 cells. Set-up: method as in Serova et al., 2006. Conditions: SKBR3, 24 h; ref Serova et al., 2006; cited from earlier work.
In data set [3] the test system is A17 cells. More on the design: method as in Gambini et al., 2018. Conditions: A17, 24 h; ref Gambini et al., 2018; cited from earlier work.
For data set [4], the system named is SKBR3 cells. Nature of the data set: MTT cell viability assay on SKBR3 cells. It counts as cell-based, human. From the text: (§1) Human MDA-MB-231 (ER–/PR–/HER2–) and SK-BR-3 (ER–/PR–/HER2+) cells were obtained from American Type Culture Collection (Rockville, MD) and cultured in Dulbecco's Modified Essential Medium (DMEM, Gibco, Life Technologies) supplemented with 10% fetal bovine serum (FBS, Gibco, Life Technologies) and 1% penicillin–streptomycin (Gibco, Life Technologies). A17 cells were established from a spontaneous lobular carcinoma that arose in an FVB/neuT mouse (Galiè et al., [2005]), and maintained in DMEM plus 20% FBS and 1% penicillin-streptomycin. Cells were cultured at 37°C under humidified atmosphere with 5% CO2.
(§2) Stock solutions were prepared for each gold(I) compound (50 mM) using dimethyl sulfoxide (DMSO) (Sigma-Aldrich) as solvent. The effects of gold(I) compounds on SKBR3, A17 and MDA-MB231 cells viability were evaluated by seeding, respectively, 10, ^*10^3, 2.5 ^*10^3, 7, ^*10^3 cells/well in 96 wells plates in complete medium (DMEM supplemented with FBS) and compared to those of cisplatin. The day after, fresh medium containing vehicle alone (DMSO, 1 % v/v final concentration) or increasing concentrations of each compound ranging from 0.1 to 100 μM was added. Cell viability was determined using a MTT [3-(4,5-dimethylthiazol-2-yl)-2,5-diphenyl-2H-tetrazolium bromide Sigma Aldrich, St. Louis, MO] assay, which is based on the conversion of MTT to formazan crystals by mitochondrial enzymes, after 24, 48, and 72 h. The formazan deposits were dissolved in DMSO and the absorbance of each well was measured at 540 nm in Multiskan Ascent 96/384 Plate Reader. Each drug concentration was evaluated with 8 replicates and each experiment was repeated three times. At the end of the experiments a dose–response curve was plotted, and the IC50 concentrations were determined. Statistical analysis was performed using One-Way ANOVA analysis of variance followed by Dunnett's Multiple Comparison Test. Quantitative data are presented as means ± SEM. Differences were considered significant at ^*P ≤ 0.0332; ^**P ≤ 0.0021; ^***P ≤ 0.0002; ^****P ≤ 0.0001.
(§3) IC50 values were calculated for each of the cell lines tested, by fitting the concentration-effect curves data obtained in the three experiments with the sigmoid-Emax model using nonlinear regression, weighted by the reciprocal of the square of the predicted effect.

A further data set deals with DNA. Set-up: method as in Nafisi et al., 2007. The settings on record: ref Nafisi et al., 2007; cited from earlier work.
Data set [5] has as its system MDA-MB231 cells. Nature of the data set: MTT cell viability assay on MDA-MB231 cells. It counts as cell-based, human. The settings on record: MDA-MB231, 24 h, ± S. D.
Excerpt: as §1
as §2, with “Statistical analysis was performed using One-Way ANOVA analysis of variance followed by Dunnett's Multiple Comparison Test.” left out, “Differences were considered significant at ^*P ≤ 0.0332; ^**P ≤ 0.0021; ^***P ≤ 0.0002; ^****P ≤ 0.0001.” left out
as §3

In data set [6] the test system is A17 cells. Kind of data set: MTT cell viability assay on A17 cells. It counts as cell-based, murine. Conditions: A17, 24 h, ± S. D.
Excerpt: as §1
as §2, with “Statistical analysis was performed using One-Way ANOVA analysis of variance followed by Dunnett's Multiple Comparison Test.” left out, “Differences were considered significant at ^*P ≤ 0.0332; ^**P ≤ 0.0021; ^***P ≤ 0.0002; ^****P ≤ 0.0001.” left out
as §3

The nature of data set [7]: Stability in physiological condition. The data set is classed as physicochemical.

Where two headings read alike, the source gives them in different places.

Take `N.N.[Cl][Pt][Cl]` [Cisplatin]: the half-inhibitory concentration (IC50) in the data set with MDA-MB231 cells [1] was 50.5 ± 2 µM; in the data set on SKBR3 cells [2] it was 43 ± 7 µM; in the data set on A17 cells [3], 15.9 ± 1.17 µM.
As to `O=C(O)c1ccccc1[PH]([Au][Cl])(c1ccccc1)c1ccccc1` [Compound 1, 2-benzoic-diphenylphosphanegold chloride], the “cytotoxic activity in MTT screening” value with SKBR3 cells [4] (SKBR3 cells, 72 h (Figure 1S) and 48 h (Figure 2)) is “did not show relevant cytotoxic activity”.
Regarding `CN(C)c1ccc2cc3ccc(N(C)C)cc3nc2c1` [acridine orange], the “binding constant of classical intercalators to DNA” value (from here on “binding constant”) in the data set on DNA is 26900 M⁻¹.
`CC[n+]1c(-c2ccccc2)c2cc(N)ccc2c2ccc(N)cc21` [ethidium bromide]: in the data set with DNA, the “binding constant” value was 65800 M⁻¹.
Regarding `CN(C)c1ccc2nc3ccc(=[N+](C)C)cc-3sc2c1` [methylene blue], in the data set on DNA, the “binding constant” value was 21300 M⁻¹.
“(3,5-dintropyrazolyl-1H-gold(I)-(triphenylphosphane) [Compound 4]”: the IC50 turned out to be 12.8 ± 0.7 µM with MDA-MB231 cells [5]; 12.3 ± 1.1 µM with SKBR3 cells [4] (SKBR3, 24 h, ± S. D.); 11 ± 1 µM with A17 cells [6]. In data set [7], the “stability in physiological condition” value is recorded as “less stable in physiological condition”.
